Experimental data reported in patent US20100092389A1 (The General Hospital Corporation, priority 2008, published 2010).

How the values were obtained:
[1] = test system: iliac atherosclerotic plaques; experiment: Catheter-based NIRF sensing of ICG enhancement of atherosclerotic plaques; format: in vivo, rabbit; conditions: immediately after injection; 6 mg ICG in 1.2 mL
Method: White rabbits (weight 3-3.5 kg) underwent balloon-denudation of iliac arteries and hypercholsterolemic diet in order to develop inflamed atheromata. The rabbits were placed on a high-cholesterol diet (1% cholesterol and 5% peanut oil) for 1 week prior to balloon injury. After an overnight fast, anesthesia was induced with IM ketamine (35 mg/kg) and xylazine (5 mg/kg). Anesthesia was continued using inhaled isoflurane (1-5% v/v) and supplemental 02. Next a 3F Fogarty arterial embolectomy catheter was advanced into the common iliac vessels of the rabbits. The balloon was inflated to tension (0.6-1.0 ml). A total of 3 pullbacks were performed in the left and right iliac artery, as well as the infrarenal aorta. Following injury, the introducer was removed and the left carotid artery was ligated. Rabbits continued on the high-cholesterol diet for 4-8 weeks. […]
Anesthesia was initiated as above, and a 5F introducer was placed into the right carotid artery and then delivered to the descending thoracic aorta under fluoroscopic guidance. […] The maximum voltage was recorded from each digitized pullback. The in vivo plaque target-to-background ratio (TBR) was thus calculated as TBR=(maximum voltage detected from all pullbacks)/(background voltage). […]

[2] = cited from earlier work
[3] = in vivo; cited from earlier work
[4] = test system: atherosclerotic plaques in the iliac and aorta; experiment: Ex vivo fluorescence reflectance imaging (FRI) of resected atherosclerotic aortoiliac vessels; set-up: species or system rabbit; conditions: excitation/emission 762 nm/800 nm
Method: Resected atherosclerotic aortoiliac vessels underwent fluorescence reflectance imaging (FRI) with an excitation/emission filter 762 nm/800 nm and a 5 second exposure time. Light images were also obtained with an exposure time of 100 msec. Region-of-interest (ROI) analysis was performed using visual identification of plaques and normal background on FRI images. The plaque target-to-background ratio was defined as: TBR=(plaque ROI signal)/(adjacent vessel background ROI signal).

plaque neovessels = experiment: Correlative fluorescence microscopy of atheromata sections; set-up: species or system rabbit; conditions: x200, FIG. 4(f)
Method: After imaging, vessels were immersed in 4% paraformaldehyde for 24 hours. Vascular rings were then frozen in an optical cutting temperature compound for histopathological analysis. Serial 5 micrometer cryosections of rabbit atheromata were cut. […] Tissue sections were viewed using a microscope and images were captured using a digital camera.

[5] = cited from earlier work; remark: listed apart in the source

CC1(C)C(/C=C/C=C/C=C/C=C2\N(CCCCS(=O)(=O)O)c3ccc4ccccc4c3C2(C)C)=[N+](CCCCS(=O)(=O)[O-])c2ccc3ccccc3c21 [ICG, Indocyanine green]
NIRF signal, voltage recordings from the intravascular space of the iliac arteries [1]: > 10 V | time usable as intravascular angiographic agent ([2]; bound to proteins): about 40 minutes | route of excretion ([2]; in vivo): rapidly excreted unmetabolized into the bile | time to elimination from the bloodstream ([2]; in vivo): about 2 hours | severe side effect incidence [3]: less than 0.1% | ex vivo plaque signal-to-background [4]: very high plaque signal-to-background | ICG signal in plaque neovessel by fluorescence microscopy (plaque neovessels): strong ICG signal in a plaque neovessel | solubility in saline [5]: not readily soluble in saline
